Test results as given in US20040058984A1, “Stabilization of radiopharmaceutical compositions using hydrophilic thioethers and hydrophilic 6-hydroxy chromans” (priority 2003, published 2004).

Key:
[1] = HPLC RCP of 99mTc-depreotide with hydrophilic thioether additives (Example 8); assay type: physicochemical; details: for effect on 99mTc-labelled peptide radiolabelling yield or stability: 99mTc-depreotide; for 3.5 hr RCP / 6.5 hr RCP / Initial RCP: 99mTc-depreotide kit, additive 4 mg, heated prep
Description: Each hydrophilic thioether was dissolved in water made up at 40 mg/mL and adjusted to pH 7 with HCl or NaOH. […] To the control vials were added 100 μL water.

[2] = HPLC RCP of 99mTc-labelled benzodiazepinedione derivative kits with L-methionine (Example 4); assay type: physicochemical; details: formulated kits
Description: L-methionine was tested for its ability to stabilize a ^99mTc-labelled glycoprotein IIb/IIIa receptor-binding benzodiazepinedione derivative 1-[(carboxyglycyl-glycyl-glycyl-cysteinamide)methyl]-4-(2-carboxyethyl)-7-[(4-amidinophenyl)methyl]-3,4-dihydro-1H-1,4-benzodiazepine-2,5-dione trifluoroacetate, having the structure. [drawing 15]
All formulations were adjusted to pH 7.4 prior to lyophilization.
(§1) The lyophilized kits were radiolabelled with ^99mTc by reconstitution with 1.0 mL technetium ^99mTc sodium pertechnetate (Technelite®) containing approximately 50 mCi ^99mTc and heating in a boiling water bath for 10 minutes.

[3] = HPLC RCP of 99mTc-labelled bisamine bisthiol non-peptide chelator with L-methionine (Example 7); assay type: physicochemical
Text: The non-peptide chelator was radiolabelled with ^99mTc in the presence and absence of L-methionine using the placebo vial heated preparation procedure as described in Example 6.

[4] = HPLC RCP of 99mTc-labelled glycoprotein IIb/IIIa receptor-binding peptide with L-methionine (Example 5); assay type: physicochemical
Description: Lyophilized kit vials were prepared containing the peptide (50 μg), sodium glucoheptonate dihydrate (10 mg), stannous chloride dihydrate (50 μg), and edetate disodium dihydrate (100 μg). The formulation was adjusted to pH 7.4 prior to lyophilization.
The lyophilized kits were radiolabelled with ^99mTc in the presence and absence of L-methionine. […] Both vials were then reconstituted with 1.0 mL technetium ^99mTc sodium pertechnetate (Technelite®) containing approximately 50 mCi ^99mTc and allowed to incubate for 30 minutes at room temperature.

[5] = HPLC RCP of 99mTc-depreotide kits with L-methionine (Example 2); details: formulated kits stored under normal conditions (≦−10° C.)
Description: Lyophilized kit vials were prepared containing depreotide, L-methionine (Met), and other components as described in Table 3. All formulations were adjusted to pH 7.4 prior to lyophilization.
as §1, with “minutes. Some of the formulations were also radiolabelled in a room temperature preparation (allowed to stand at rom temperature 30 minutes following reconstitution).” for “minutes.”

3.5 hr RCP [1] | 6.5 hr RCP [1] | Initial RCP [1] | SMILES | effect on 99mTc-labelled peptide radiolabelling yield or stability [1] | effect on radiolabelling yield and stability of the 99mTc-labelled benzodiazepinedione derivative [2] | effect on radiolabelling yield and stability of a 99mTc-labelled non-peptide chelator [3] | effect on radiolabelling yield and stability of the 99mTc-peptide [4] | effect on radiolabelling yield and stability of 99mTc-depreotide [5]
93.9 | 90.7 | 94.1 | CSCC[C@H](N)CO [Methioninol, methioninol] | increase the radiolabelling yield and the stability | – | – | – | –
– | – | – | CSCCC=O [3-(methylthio)propionaldehyde, reference compound] | no effect | – | – | – | –
– | – | – | C[S+]([O-])CC[C@H](N)C(=O)O (stereo partly shown) [Methionine sulfoxide, reference compound] | no effect | – | – | – | –
94.2 | 93.3 | 92.8 | CCSCCN [2-(Ethylthio)ethylamine] | increase the radiolabelling yield and the stability | – | – | – | –
84.0 | 80.9 | 89.1 | CSCC(O)CO (stereo not shown) [3-Methylthio-1,2-propanediol, 3-methylthio-1,2-propanediol] | increase the radiolabelling yield and the stability | – | – | – | –
– | – | – | CS(=O)(=O)CC[C@H](N)C(=O)O [methionine sulfone, reference compound] | no effect | – | – | – | –

SMILES | 3.5 hr RCP [1] | 6.5 hr RCP [1] | Initial RCP [1] | effect on 99mTc-labelled peptide radiolabelling yield or stability [1] | effect on radiolabelling yield and stability of the 99mTc-labelled benzodiazepinedione derivative [2] | effect on radiolabelling yield and stability of a 99mTc-labelled non-peptide chelator [3] | effect on radiolabelling yield and stability of the 99mTc-peptide [4] | effect on radiolabelling yield and stability of 99mTc-depreotide [5]
CSCC[C@H](N)C(=O)O [L-methionine] | 90.4 | 89.3 | 95.0 | – | increases the radiolabelling yield and the stability | increases the radiolabelling yield and the stability | increases the radiolabelling yield and the stability | increases the radiolabelling yield and the stability
